In patent publication US20250236611A1, “PYRAZOLE COMPOUNDS AND USES THEREOF” (ALCON INC., priority 2021, published 2025):

Key:
Assay type in all cases: biochemical
Conditions in all cases: 10 nM JAK enzyme, 800 nM Abl peptide, room temperature 75 min
TYK2 = TYK2 (Homo sapiens, UniProt P29597); experiment: JAK assay (KINASE-GLO luminescent kinase assay), TYK2
Procedure: All compounds were initially prepared as 10 mM stocks in anhydrous dimethylsulfoxide (DMSO). […] Test compounds were then serially diluted 1:5 in DMSO for an 11-point concentration response and further diluted in the assay buffer bringing all compound concentrations to a final range of 100 μM to 10 pM in 2.5% DMSO. The assay was performed in white 96-well, flat-bottom, half-area, non-binding assay plate (Corning #3642) in assay buffer consisting of 20 mM HEPES (pH 7.5), 10 mM MgCl2*6H2O, 100 μM sodium orthovanadate, 0.05% CHAPS and 0.1% bovine serum albumin. A 10 μL aliquot of compound from each well of the intermediate dilution plate and 20 μL of a 2×JAK substrate/enzyme solution containing acceptor substrate (800 nM Abl peptide), JAK enzyme (10 nM JAK1, JAK2, JAK3, or TYK2), and 1,4-Dithiothreitol (DTT, 2 μM) were added to all wells. The reaction was initiated by the addition of 10 μL of 4× stock solution ATP (2 μM). Reactions were thoroughly mixed manually, covered and allowed to incubate at room temperature for 75 min. Protein kinase activity was quantitated using Promega's KINASE-GLO™ luminescent Kinase Assay Kit according to the manufacturer's directions. ATP concentrations remaining in Test wells following the termination of the enzymatic reaction were compared against control wells containing equivalent amounts of DMSO containing no inhibitor (CTRL). […] Percent of Control (POC) values were determined for each concentration of compound tested according to the equation:
(§1) [formula] • IC50 values were calculated using the following 4-parameter logistic curve-fitting algorithm:
(§2) [formula] • IC50 values were converted to Ki values using the Cheng-Prusoff Equation: […]

JAK1 = JAK1 (Homo sapiens, UniProt P23458); experiment: JAK assay (KINASE-GLO luminescent kinase assay), JAK1
Procedure: (§3) All compounds were initially prepared as 10 mM stocks in anhydrous dimethylsulfoxide (DMSO). A 20 μL aliquot of the 10 mM solutions was transferred to individual wells in column 1 of a 96-well polypropylene microtiter plate (Corning #3363) and diluted with DMSO to give a final compound concentration of 4 mM. Test compounds were then serially diluted 1:5 in DMSO for an 11-point concentration response and further diluted in the assay buffer bringing all compound concentrations to a final range of 100 μM to 10 pM in 2.5% DMSO. The assay was performed in white 96-well, flat-bottom, half-area, non-binding assay plate (Corning #3642) in assay buffer consisting of 20 mM HEPES (pH 7.5), 10 mM MgCl2*6H2O, 100 μM sodium orthovanadate, 0.05% CHAPS and 0.1% bovine serum albumin. A 10 μL aliquot of compound from each well of the intermediate dilution plate and 20 μL of a 2×JAK substrate/enzyme solution containing acceptor substrate (800 nM Abl peptide), JAK enzyme (10 nM JAK1, JAK2, JAK3, or TYK2), and 1,4-Dithiothreitol (DTT, 2 μM) were added to all wells. The reaction was initiated by the addition of 10 μL of 4× stock solution ATP (2 μM). Reactions were thoroughly mixed manually, covered and allowed to incubate at room temperature for 75 min. Protein kinase activity was quantitated using Promega's KINASE-GLO™ luminescent Kinase Assay Kit according to the manufacturer's directions. ATP concentrations remaining in Test wells following the termination of the enzymatic reaction were compared against control wells containing equivalent amounts of DMSO containing no inhibitor (CTRL). […] Percent of Control (POC) values were determined for each concentration of compound tested according to the equation:
as §1, §2

JAK3 = molecular target: T1, JAK3 (Homo sapiens, UniProt P52333); experiment: JAK assay (KINASE-GLO luminescent kinase assay), JAK3
T1 sequence (P52333 1-1124): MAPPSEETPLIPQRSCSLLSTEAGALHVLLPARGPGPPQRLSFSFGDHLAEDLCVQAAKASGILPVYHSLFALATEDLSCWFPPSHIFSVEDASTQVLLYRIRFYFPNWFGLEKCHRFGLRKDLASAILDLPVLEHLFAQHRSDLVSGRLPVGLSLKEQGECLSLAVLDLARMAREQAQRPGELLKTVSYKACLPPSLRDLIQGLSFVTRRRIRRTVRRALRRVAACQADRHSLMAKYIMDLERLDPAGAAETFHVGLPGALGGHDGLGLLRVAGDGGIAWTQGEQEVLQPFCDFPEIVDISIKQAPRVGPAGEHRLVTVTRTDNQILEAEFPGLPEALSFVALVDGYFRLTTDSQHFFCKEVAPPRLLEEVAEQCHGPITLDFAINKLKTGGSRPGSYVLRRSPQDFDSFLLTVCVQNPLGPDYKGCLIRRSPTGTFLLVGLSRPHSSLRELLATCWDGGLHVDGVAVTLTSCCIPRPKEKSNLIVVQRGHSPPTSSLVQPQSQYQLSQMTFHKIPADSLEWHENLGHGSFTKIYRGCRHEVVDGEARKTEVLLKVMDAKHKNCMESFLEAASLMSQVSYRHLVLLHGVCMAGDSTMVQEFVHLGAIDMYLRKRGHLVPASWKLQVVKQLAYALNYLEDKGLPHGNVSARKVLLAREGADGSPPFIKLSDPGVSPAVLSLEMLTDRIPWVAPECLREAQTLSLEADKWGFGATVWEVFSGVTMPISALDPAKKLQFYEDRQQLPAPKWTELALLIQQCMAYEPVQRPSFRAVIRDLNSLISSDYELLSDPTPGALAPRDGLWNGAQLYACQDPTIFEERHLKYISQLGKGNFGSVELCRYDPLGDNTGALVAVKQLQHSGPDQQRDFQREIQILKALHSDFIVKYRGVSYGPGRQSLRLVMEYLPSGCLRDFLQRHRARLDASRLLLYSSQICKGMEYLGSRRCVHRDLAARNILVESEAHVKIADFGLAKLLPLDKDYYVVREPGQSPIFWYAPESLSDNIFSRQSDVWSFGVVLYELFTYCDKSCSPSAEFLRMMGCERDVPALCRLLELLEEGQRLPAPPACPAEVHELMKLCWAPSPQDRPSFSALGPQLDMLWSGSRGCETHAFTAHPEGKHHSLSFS
Procedure: as §3, §1, §2

JAK2 = JAK2 (Homo sapiens, UniProt O60674); experiment: JAK assay (KINASE-GLO luminescent kinase assay), JAK2
Procedure: as §3, §1, §2

Chain of JAK1 (P23458 whole entry): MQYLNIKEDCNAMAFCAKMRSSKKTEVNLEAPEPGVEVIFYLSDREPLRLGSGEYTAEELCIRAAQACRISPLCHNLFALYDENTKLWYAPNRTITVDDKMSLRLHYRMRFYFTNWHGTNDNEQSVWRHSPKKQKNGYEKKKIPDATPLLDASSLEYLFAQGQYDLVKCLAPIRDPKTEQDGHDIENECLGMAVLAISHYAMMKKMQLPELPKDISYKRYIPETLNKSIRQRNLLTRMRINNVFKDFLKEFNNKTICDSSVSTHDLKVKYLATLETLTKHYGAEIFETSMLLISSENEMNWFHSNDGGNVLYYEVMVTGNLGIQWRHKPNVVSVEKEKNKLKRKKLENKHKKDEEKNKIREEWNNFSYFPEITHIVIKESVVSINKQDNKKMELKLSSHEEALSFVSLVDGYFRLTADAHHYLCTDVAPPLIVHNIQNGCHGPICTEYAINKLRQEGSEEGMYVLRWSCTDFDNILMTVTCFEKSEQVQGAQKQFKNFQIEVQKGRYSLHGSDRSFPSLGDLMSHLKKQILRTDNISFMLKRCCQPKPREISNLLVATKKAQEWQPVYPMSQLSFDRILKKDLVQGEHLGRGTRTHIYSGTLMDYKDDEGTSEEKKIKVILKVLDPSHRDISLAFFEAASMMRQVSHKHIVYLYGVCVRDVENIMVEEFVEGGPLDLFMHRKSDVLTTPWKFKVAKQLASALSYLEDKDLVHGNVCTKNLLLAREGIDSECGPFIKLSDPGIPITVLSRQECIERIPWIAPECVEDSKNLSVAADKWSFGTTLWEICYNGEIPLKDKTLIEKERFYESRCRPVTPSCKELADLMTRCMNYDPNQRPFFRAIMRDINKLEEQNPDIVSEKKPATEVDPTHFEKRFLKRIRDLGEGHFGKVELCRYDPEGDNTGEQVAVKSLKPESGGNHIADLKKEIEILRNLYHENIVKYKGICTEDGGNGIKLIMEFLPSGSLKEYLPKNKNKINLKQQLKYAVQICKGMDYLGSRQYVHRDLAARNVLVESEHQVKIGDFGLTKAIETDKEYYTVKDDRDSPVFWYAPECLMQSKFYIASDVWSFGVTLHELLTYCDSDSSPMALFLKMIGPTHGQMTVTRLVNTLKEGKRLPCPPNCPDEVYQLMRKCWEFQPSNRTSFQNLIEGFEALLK
Chain of JAK2 (O60674 whole entry): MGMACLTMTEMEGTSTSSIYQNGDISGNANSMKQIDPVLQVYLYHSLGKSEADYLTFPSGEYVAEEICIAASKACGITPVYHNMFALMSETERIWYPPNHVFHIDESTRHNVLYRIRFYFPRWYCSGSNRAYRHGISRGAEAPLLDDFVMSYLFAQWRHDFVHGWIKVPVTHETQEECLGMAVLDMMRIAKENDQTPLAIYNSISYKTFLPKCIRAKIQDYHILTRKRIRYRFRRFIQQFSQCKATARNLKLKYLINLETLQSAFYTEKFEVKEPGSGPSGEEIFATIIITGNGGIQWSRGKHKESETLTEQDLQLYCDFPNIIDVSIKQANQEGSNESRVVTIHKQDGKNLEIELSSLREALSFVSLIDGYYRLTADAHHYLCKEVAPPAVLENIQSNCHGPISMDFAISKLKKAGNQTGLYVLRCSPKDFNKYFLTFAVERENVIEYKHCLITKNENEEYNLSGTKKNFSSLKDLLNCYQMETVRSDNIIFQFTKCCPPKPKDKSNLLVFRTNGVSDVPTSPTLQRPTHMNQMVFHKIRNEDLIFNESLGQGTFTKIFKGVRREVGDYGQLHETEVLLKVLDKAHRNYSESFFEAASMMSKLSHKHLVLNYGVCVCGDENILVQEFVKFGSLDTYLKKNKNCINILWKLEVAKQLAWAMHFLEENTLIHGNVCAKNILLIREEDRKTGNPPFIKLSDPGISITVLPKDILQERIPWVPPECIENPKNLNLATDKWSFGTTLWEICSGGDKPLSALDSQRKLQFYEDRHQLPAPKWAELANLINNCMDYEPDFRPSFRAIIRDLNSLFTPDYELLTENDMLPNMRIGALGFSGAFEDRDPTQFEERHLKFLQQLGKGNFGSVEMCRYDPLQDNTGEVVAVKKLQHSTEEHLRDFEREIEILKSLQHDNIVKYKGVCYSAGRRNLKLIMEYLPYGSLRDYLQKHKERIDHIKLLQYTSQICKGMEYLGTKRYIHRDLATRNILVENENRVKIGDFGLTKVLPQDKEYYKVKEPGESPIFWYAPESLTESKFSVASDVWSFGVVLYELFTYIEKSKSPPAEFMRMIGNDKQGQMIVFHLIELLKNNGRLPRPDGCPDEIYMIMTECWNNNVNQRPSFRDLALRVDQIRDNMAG
Chain of TYK2 (P29597 whole entry): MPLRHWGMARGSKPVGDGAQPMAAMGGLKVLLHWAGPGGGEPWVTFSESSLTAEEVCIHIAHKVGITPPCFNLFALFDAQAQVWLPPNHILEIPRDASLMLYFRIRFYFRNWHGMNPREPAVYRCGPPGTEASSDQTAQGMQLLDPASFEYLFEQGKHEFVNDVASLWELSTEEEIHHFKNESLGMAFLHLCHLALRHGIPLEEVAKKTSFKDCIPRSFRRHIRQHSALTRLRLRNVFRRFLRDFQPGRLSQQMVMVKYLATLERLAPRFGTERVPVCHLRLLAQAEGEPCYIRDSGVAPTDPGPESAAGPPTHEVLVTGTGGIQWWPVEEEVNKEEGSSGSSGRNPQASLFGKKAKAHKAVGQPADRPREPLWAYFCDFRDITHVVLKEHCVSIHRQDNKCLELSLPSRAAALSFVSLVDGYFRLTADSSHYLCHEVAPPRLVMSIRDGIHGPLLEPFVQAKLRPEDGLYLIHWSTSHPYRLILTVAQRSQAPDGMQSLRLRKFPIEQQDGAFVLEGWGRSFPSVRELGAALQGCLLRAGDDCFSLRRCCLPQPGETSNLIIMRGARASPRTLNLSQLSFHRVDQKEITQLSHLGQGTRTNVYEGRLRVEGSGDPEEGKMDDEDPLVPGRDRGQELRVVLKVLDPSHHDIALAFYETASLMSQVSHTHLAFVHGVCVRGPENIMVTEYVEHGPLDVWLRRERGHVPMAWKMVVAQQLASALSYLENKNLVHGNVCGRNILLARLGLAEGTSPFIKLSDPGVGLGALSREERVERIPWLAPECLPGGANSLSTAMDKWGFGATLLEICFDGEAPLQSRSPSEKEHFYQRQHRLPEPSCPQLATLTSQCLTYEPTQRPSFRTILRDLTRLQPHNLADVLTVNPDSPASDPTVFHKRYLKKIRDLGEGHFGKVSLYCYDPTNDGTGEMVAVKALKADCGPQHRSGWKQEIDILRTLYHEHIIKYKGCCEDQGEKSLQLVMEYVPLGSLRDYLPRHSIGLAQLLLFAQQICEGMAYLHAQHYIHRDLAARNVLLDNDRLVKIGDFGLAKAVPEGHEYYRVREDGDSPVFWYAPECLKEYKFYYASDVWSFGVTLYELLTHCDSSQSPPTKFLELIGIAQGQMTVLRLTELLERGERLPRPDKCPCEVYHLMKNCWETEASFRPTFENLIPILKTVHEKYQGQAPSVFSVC

IC50 (TYK2) [nM]	IC50 (JAK1) [nM]	IC50 (JAK3) [nM]	SMILES	IC50 (JAK2) [nM]
	< 100000	< 100000	Cc1cnc(Nc2cccc3c2CN(C)C3)nc1-c1cnn(CC2(Cl)CC2)c1 [CN1CC2═CC═CC(═C2C1)NC3═NC(═C]	< 1000
> 50000	> 50000	> 50000	NC(=O)CCn1cc(-c2nc(NC3CCNCC3(F)F)ncc2Cl)cn1 (stereo not shown) [NC(═O)CC[N]1C═C(C═N1)C2═C]	< 100000
< 100	< 1000	< 100	COC(=O)c1ccc(Nc2ncc(Cl)c(-c3cnn(CC4(C#N)CC4)c3)n2)cn1 [COC(═O)C1═NC═C(NC2═NC(═C]	< 10
< 10	< 100	< 10	Cc1cnc(Nc2ccc(N3CCOCC3)cc2)nc1-c1cnn(CC2(C#N)CC2)c1 [C(C1═C(N═C(NC2═CC═C(C═C2)N3CCOCC3)]	< 10
< 10	< 10	< 100	N#CCCn1cc(-c2nc(Nc3ccc(C(=O)O)cc3)ncc2Cl)cn1 [OC(═O)C1═CC═C(NC2═NC(═C]	< 10
< 100	< 100	< 100	CCS(=O)(=O)N1CC(CF)(Cn2cc(-c3nc(Nc4cc(C)ns4)ncc3Cl)cn2)C1 [CC[S](═O)(═O)N1CC(CF)(C[N]2C═C]	< 10
< 100	< 100	< 10	COC(=O)c1cc(Nc2ncc(C)c(-c3cnn(CCC#N)c3)n2)ccc1N1CCOCC1 [COC(═O)C1═CC(═CC═C1)NC2═NC(═C]	< 10
< 100	< 100	< 100	Cc1cnc(Nc2cccc(C(=O)N(C)C)c2)nc1-c1cnn(CC2(CF)CC2)c1 [CN(C)C(═O)C1═CC(═CC═C1)NC2═NC]	< 10
< 100	< 100	< 100	Cc1cnc(Nc2ccc3c(c2)OCCN3C)nc1-c1cnn(CC2(CF)CC2)c1 [CN1CCOC2═CC(═CC═C12)NC3═NC(═C]	< 10
> 50000	> 50000	> 50000	N#CCCn1cc(-c2nc(Nc3cc(C(F)(F)F)no3)ncc2Cl)cn1 [FC(F)(F)C1═NOC(═C1)NC2═NC(═C]	< 1000
< 1000	< 1000	< 100	CC(C)(C)OC(=O)N1CC(CO)(Cn2cc(-c3nc(Nc4ccc(C(N)=O)cc4)ncc3Cl)cn2)C1 [CC(C)(C)OC(═O)N1CC(CO)(C1)C[N]2C═C]	< 100
< 100	< 100	< 100	Cc1cnc(Nc2ccc(OCCN(C)C)cc2)nc1-c1cnn(CC2(CF)CC2)c1 [(C)CCOC1═CC═C(NC2═NC]	< 10
< 100000	< 100000	< 100000	CS(=O)(=O)N(c1ncc(Cl)c(-c2cnn(CCC#N)c2)n1)S(C)(=O)=O [C[S](═O)(═O)NC1═NC(═C]	< 100000

Continued, compound first:

SMILES	IC50 (TYK2) [nM]	IC50 (JAK1) [nM]	IC50 (JAK3) [nM]	IC50 (JAK2) [nM]
C=CCNc1ncc(C)c(-c2cnn(CCC#N)c2)n1 [CC1═C(N═C(NCC═C)N═C1)C2═C[N]]	< 100000	< 100000	< 100000	< 100000
Cc1cc(Nc2ncc(Cl)c(-c3cnn(CC4(N(C)C(=O)OC(C)(C)C)CC4)c3)n2)sn1 [CN(C(═O)OC(C)(C)C)C1(CC1)C[N]2C═C]	< 1000	< 1000	< 100	< 100
Cc1cnc(NC(=O)Nc2ccc(Cl)cc2)nc1-c1cnn(CC2(CF)CC2)c1 [CC1═C(N═C(NC(═O)NC2═CC═C]	> 50000	> 50000	> 50000	> 50000
Cc1cc(Nc2nc3c(c(-c4cnn(CC5(C#N)COC5)c4)n2)CN(C(=O)OC(C)(C)C)C3)sn1 [CC1═NSC(═C1)NC2═NC(═C3CN]	> 50000	> 50000	> 50000	> 50000
Cc1cnc(Nc2cc(CO)ns2)nc1-c1cnn(CC2(CF)CC2)c1 [CC1═C(N═C(NC2═CC(═NS2)CO)N═C1)C3═C[N]]	< 10	< 10	< 10	< 10
Cc1cnc(Nc2cc(COC(=O)CCN3CCOCC3)ns2)nc1-c1cnn(CC2(CF)CC2)c1 [CC1═C(N═C(NC2═CC(═NS2)COC]	< 10	< 100	< 10	< 10
Cc1cc(Nc2ncc(C)c(-c3cnn(CC4(CF)CCC4)c3)n2)ccn1 [CC1═NC═CC(═C1)NC2═NC(═C]	< 100	< 1000	< 100	< 10
Cc1cc(Nc2ncc(Cl)c(-c3cnn(CCC#N)c3)n2)no1 [CC1═CC(═NO1)NC2═NC(═C]	< 100	< 1000	< 1000	< 100
Cc1cc(Nc2ncc(C)c(-c3cnn(CC4(CF)CC4)c3)n2)ccc1N1CCN(C)CC1 [CN1CCN(CC1)C2═C(C)C═C(NC3═NC]	< 10	< 100	< 10	< 10
Cc1cnc(Nc2ccc(CN3CCOCC3)cc2)nc1 [CC1═C(N═C(NC2═CC═C(CN3CCOCC3)C═C2)N═C1)]	< 100	< 100	< 10	< 10
Cc1cnc(NCCN2CCOCC2)nc1-c1cnn(CCC#N)c1 [CC1═C(N═C(NCCN2CCOCC2)N═C1)C3═C[N]]		< 100000	> 50000	< 100000
N#CCCn1cc(-c2nc(N(C(=O)c3ccccc3)C(=O)c3ccccc3)ncc2Cl)cn1 [ClC1═C(N═C(N═C1)N(C(═O)C2═CC═CC═C2)C]				< 100000
Cc1cnc(Nc2ccns2)nc1-c1cnn(CC2(CF)CC2)c1 [CC1═C(N═C(NC2═CC═NS2)N═C1)C3═C[N]]				< 10
Cc1ccc(S(=O)(=O)Nc2ncc(Cl)c(-c3cnn(CCC#N)c3)n2)cc1 [CC1═CC═C(C═C1)[S](═O)(═O)NC2═NC]	< 100000			< 100000
Cc1cnc(Nc2cccc(C(N)=O)c2)nc1-c1cnn(CC2(CF)CC2)c1 [CC1═C(N═C(NC2═CC═CC(═C2)C]			< 100	< 10
